Results as given in patent US20120225135A1 (priority 2010, published 2012).

Legend:
Total Count = assay: Disinfection of effluents, total count; type: cell-based; conditions: for Total Count: effluents, ClO2 dose 9.86 mg/L, 30 minutes; for Total Count per 100 mL: trickling filters effluents
Total Coliform = assay: Disinfection of effluents, total coliforms; type: cell-based; conditions: for Total Coliforms: effluents, ClO2 dose 9.86 mg/L, 30 minutes; for Total Coliform per 100 mL: trickling filters effluents
Confirmed Coliform = assay: Disinfection of effluents, confirmed coliforms; type: cell-based; conditions: for Confirmed Coliforms: effluents, ClO2 dose 9.86 mg/L, 30 minutes; for Confirmed Coliform per 100 mL: trickling filters effluents
Streptococcus = assay: Disinfection of effluents, streptococcus; type: cell-based; conditions: trickling filters effluents
E-Coli Phage = assay: Disinfection of effluents, E. coli phage; type: cell-based; conditions: ClO2 dose 9.86 mg/L, 30 minutes
biofilm = conditions: cited from earlier work
[1] = ClO2 dose 2.7 mg/L, contact time 5 min
[2] = ClO2 dose 2.7 mg/L, contact time 20 min
[3] = ClO2 dose 2.7 mg/L, contact time 35 min
[4] = ClO2 dose 5.0 mg/L, contact time 15 min
[5] = ClO2 dose 5.0 mg/L, contact time 30 min
[6] = ClO2 dose 5.0 mg/L, contact time 45 min
[7] = ClO2 dose 10.8 mg/L, contact time 5 min
[8] = ClO2 dose 10.8 mg/L, contact time 20 min
[9] = ClO2 dose 10.8 mg/L, contact time 35 min

[O][Cl+][O-] [Chlorine Dioxide, chlorine dioxide]
Total Count (Total Count; pH initial 8.2, final 8.1): 2 × 10^2 MPN per 100 ml
Total Count (Total Count; pH initial 9.1, final 9.2): 2.5 × 10^3 MPN per 100 ml
Total Count (Total Count; pH initial 10.0, final 10.0): 6.8 × 10^2 MPN per 100 ml
Total Count per 100 mL (Total Count; [1]): 6.75 × 10^7 per 100 mL
Total Count per 100 mL (Total Count; [2]): 5.3 × 10^7 per 100 mL
Total Count per 100 mL (Total Count; [3]): 3.1 × 10^7 per 100 mL
Total Count per 100 mL (Total Count; [4]): 2.0 × 10^6 per 100 mL
Total Count per 100 mL (Total Count; [5]): 1.6 × 10^5 per 100 mL
Total Count per 100 mL (Total Count; [6]): 9.0 × 10^4 per 100 mL
Total Count per 100 mL (Total Count; [7]): 1.2 × 10^5 per 100 mL
Total Count per 100 mL (Total Count; [8]): 2.9 × 10^4 per 100 mL
Total Count per 100 mL (Total Count; [9]): 2.5 × 10^4 per 100 mL
Total Coliforms (Total Coliform; pH initial 4.6, final 4.4): 4.5 MPN per 100 ml
Total Coliforms (Total Coliform; pH initial 5.5, final 5.6): 7.8 MPN per 100 ml
Total Coliforms (Total Coliform; pH initial 6.5, final 6.7): 7.8 MPN per 100 ml
Total Coliforms (Total Coliform; pH initial 7.5, final 7.6): 49 MPN per 100 ml
Total Coliforms (Total Coliform; pH initial 8.2, final 8.1): 4.6 × 10^2 MPN per 100 ml
Total Coliforms (Total Coliform; pH initial 9.1, final 9.2): 5.4 × 10^3 MPN per 100 ml
Total Coliforms (Total Coliform; pH initial 10.0, final 10.0): 2.4 × 10^4 MPN per 100 ml
Total Coliform per 100 mL (Total Coliform; [1]): 2.4 × 10^7 per 100 mL
Total Coliform per 100 mL (Total Coliform; [2]): 1.3 × 10^7 per 100 mL
Total Coliform per 100 mL (Total Coliform; [3]): 2.4 × 10^6 per 100 mL
Total Coliform per 100 mL (Total Coliform; [4]): 2.4 × 10^6 per 100 mL
Total Coliform per 100 mL (Total Coliform; [5]): 7.9 × 10^3 per 100 mL
Total Coliform per 100 mL (Total Coliform; [6]): 2.4 × 10^3 per 100 mL
Total Coliform per 100 mL (Total Coliform; [7]): 1.3 × 10^3 per 100 mL
Total Coliform per 100 mL (Total Coliform; [8]): 3.3 × 10^2 per 100 mL
Confirmed Coliforms (Confirmed Coliform; pH initial 4.6, final 4.4): 2 MPN per 100 ml
Confirmed Coliforms (Confirmed Coliform; pH initial 5.5, final 5.6): 2 MPN per 100 ml
Confirmed Coliforms (Confirmed Coliform; pH initial 6.5, final 6.7): 4.5 MPN per 100 ml
Confirmed Coliforms (Confirmed Coliform; pH initial 7.5, final 7.6): 17 MPN per 100 ml
Confirmed Coliforms (Confirmed Coliform; pH initial 8.2, final 8.1): 33 MPN per 100 ml
Confirmed Coliforms (Confirmed Coliform; pH initial 9.1, final 9.2): 7.9 × 10^2 MPN per 100 ml
Confirmed Coliforms (Confirmed Coliform; pH initial 10.0, final 10.0): 1.3 × 10^4 MPN per 100 ml
Confirmed Coliform per 100 mL (Confirmed Coliform; [1]): 1.3 × 10^7 per 100 mL
Confirmed Coliform per 100 mL (Confirmed Coliform; [2]): 2.4 × 10^7 per 100 mL
Confirmed Coliform per 100 mL (Confirmed Coliform; [3]): 2.4 × 10^6 per 100 mL
Confirmed Coliform per 100 mL (Confirmed Coliform; [4]): 2.4 × 10^6 per 100 mL
Confirmed Coliform per 100 mL (Confirmed Coliform; [5]): 1.1 × 10^2 per 100 mL
Confirmed Coliform per 100 mL (Confirmed Coliform; [7]): 1.3 × 10^3 per 100 mL
Confirmed Coliform per 100 mL (Confirmed Coliform; [8]): 14 per 100 mL
Confirmed Coliform per 100 mL (Confirmed Coliform; [9]): 7.8 per 100 mL
Streptococcus per 100 mL (Streptococcus; [1]): 8.4 × 10^7 per 100 mL
Streptococcus per 100 mL (Streptococcus; [2]): 2.4 × 10^7 per 100 mL
Streptococcus per 100 mL (Streptococcus; [7]): 2.7 × 10^5 per 100 mL
Streptococcus per 100 mL (Streptococcus; [8]): 8.0 × 10^3 per 100 mL
E-Coli Phage (E-Coli Phage; pH initial 4.6, final 4.4): 0 MPN per 100 ml
E-Coli Phage (E-Coli Phage; pH initial 5.5, final 5.6): 0 MPN per 100 ml
E-Coli Phage (E-Coli Phage; pH initial 6.5, final 6.7): 0 MPN per 100 ml
E-Coli Phage (E-Coli Phage; pH initial 7.5, final 7.6): 0 MPN per 100 ml
E-Coli Phage (E-Coli Phage; pH initial 8.2, final 8.1): 2 MPN per 100 ml
E-Coli Phage (E-Coli Phage; pH initial 9.1, final 9.2): 79 MPN per 100 ml
E-Coli Phage (E-Coli Phage; pH initial 10.0, final 10.0): 79 MPN per 100 ml
detachment of biofilms (biofilm): very effective
